Entries after “also recorded” stand apart in the source; their conditions may differ.
Legend:
[1] = Whole-body clearance of indium-111 labeled electrophilic benzyl-EDTA derivatives; assay type: in vivo; conditions: indium-111 labeled chelate, BALB/c mice; for apparent half-life, whole-body clearance: after tail-vein injection
Procedure: FIG. 4 Whole-body clearance of indium-^111I labeled electrophilic derivatives of benzyl-EDTA from BALB/c mice after tail-vein injection. Here the objective was to find an electrophilic chelate that clears from the animal quickly when not captured by an engineered CHA255.
As reactive ligands, a small set of chelates bearing electrophilic para substituents (FIG. 3) that could react with cysteine were prepared. To be most useful, the electrophilic ligands should be stable in biological media so that they not react prematurely with common biological nucleophiles such as the cysteine on glutathione or in albumin (Geigy Scientific Tables Vol 3, C. Lentner, ed., Ciba-Geigy Ltd., Basel, Switz (1984)). The whole-body clearance of the radiolabeled chelates from mice was studied (FIG. 4 and Chmura, A. J., et al., J. Controlled Release 78:249-258 (2002)) to identify the electrophilic chelates that are unreactive in plasma in vitro, and which also quantitatively clear from live animals.

Fab S95C [2] = test: Covalent attachment of 111In-chelates to engineered Fab S95C (SDS-PAGE); assay type: binding; conditions: physiological pH and temperature, raw culture medium with 10% fetal calf serum
Procedure: FIG. 5 Conjugation of electrophilic ^111In-benzyl-EDTA derivatives with engineered Fab S95C. Phosphorimage of 10-20% SDS-PAGE gel of samples of complete culture media incubated with ^111In-labeled (A) CABE, (B) CpABE, (C) AABE, and (D) ABE. The radiolabeled light chains migrate near 25 Kd.
To investigate whether either the S95C or the N96C Fab would bind irreversibly to its target, ^111In-labeled chelates bearing electrophilic groups were incubated at physiological pH and temperature with raw tissue culture medium from the cells expressing these recombinant proteins. The culture medium contained 10% fetal calf serum, representative of typical biological media.
The samples were analyzed by denaturing gel electrophoresis (SDS-PAGE). Separation under reducing and denaturing conditions on SDS-PAGE separates the light chain from the heavy chain of each Fab, functionally destroying the antibody-binding pocket. Chelates bound to the Fab but not covalently linked will dissociate because the antibody-binding pocket is no longer folded. […] However, a chelate that not only bound to a Fab but also covalently linked will be attached to the Fab light chain and migrate with it on SDS-PAGE.

Fab S95C [3] = test: Kinetics of covalent bond formation with Fab S95C; assay type: binding; conditions: 22° C., pH 7.4
Procedure: FIG. 7 (a) Phosphorimage of a representative SDS-PAGE assay of the extent of permanent attachment of ^111In-AABE to the light chain of Fab S95C. (b)Kinetics of formation of the covalent bond between bound ^111In-AABE and Fab S95C, at 22° C., pH 7.4.
We explored the rate of covalent attachment of the AABE-^111In chelate to the S95C mutant, by monitoring the extent of reaction as a function of time. The covalent attachment was 50% complete in approximately 10 min at 22° C. (FIG. 7).

S95C Fab = test: Competition assay: blocking covalent attachment of 111In-AABE; assay type: binding; conditions: excess nonradioactive ABE-metal chelate
Source text: (a) Competition ELISA curves. Different metal-ABE chelates compete with an immobilized indium chelate for binding Fab S95C. (b) Competitive binding of a series of metal-ABE chelates, measured by blocking the covalent attachment of ^111In-AABE to Fab S95C. SDSPAGE gel bands show increased labeling of the light chain with decreasing competition.
To further confirm that S95C Fab retained the ligand-binding specificity, we performed a competition assay to see whether nonradioactive ABE-indium, -iron, -cadmium, -scandium, or -gallium could block the covalent attachment of ^111In-AABE.

G54C mutant of 2D12.5 = test: Permanent binding to G54C, competitive 90Y-AABD attachment, SDS-PAGE; conditions: 37° C.
Procedure: FIG. 17 a) Scheme describing the permanent binding pair. b) Infinite binding is observed not only for ^90Y-AABD but also for ^111In-AABD, assayed by SDS-PAGE under denaturing conditions where only permanently bound complexes remain attached to the antibody.
FIG. 18 The G54C mutant was preincubated in triplicate with 10 μM AABD complexes of Y^3+, In^3+ or Cu^2+, a negative control N-(1-carbamoyl-2-(4-nitrophenyl)-ethyl)-acrylamide or N-(4-carboxymethylphenyl)-acrylamide, or just buffer, for 5 min, 20 min or 120 min at 37° C., pH 7.5. At the stated times ^90Y-AABD (1 μM) was added to each solution to compete for free G54C. Permanent binding was assayed by measuring band intensities after SDS-PAGE. a) Phosphorimage of gel. The fainter the bands, the greater the permanent binding by the unlabeled ligand. b) Crystal structures of Y-DOTA, In-DOTA-mono(p aminoanilide) (some atoms removed for clarity) and Cu-DOTA.
FIG. 19 a) Metal-AABD (10 μM) complexes were preincubated separately with aliquots of G54C for 5 min, followed by addition of 1 μM ^90Y-AABD, which competes for free G54C, and SDS-PAGE analysis. b) From quantitative phosphorimaging, the highest-affinity AABD complexes form permanent bonds with G54C with higher yields than more 3+weakly binding rare earth-AABD complexes whose ionic radii are slightly smaller (Lu Yb^3+) or larger (Ce^3+, La^3+) than ideal.
We were curious to see if an even weaker binder such as a copper chelate (KD˜10^−4 M for Cu-NBD) would bind irreversibly under ordinary conditions. We tested this by comparing the permanent binding of Y^3+-, In^3+-, and Cu^2+-AABD, using competitive ^90Y-AABD attachment as an indicator (FIG. 18). […] Weaker binding In-AABD blocks >50% of the sites after 5 min preincubation, and even more at later times. Very weakly binding Cu-AABD initially occupies only about 10% of the G54C sites under these conditions, but it has permanently attached to G54C in good yield after 2 hr, blocking>70% of the sites.

antibody 2D12.5 = test: Competitive immunoassay (ELISA) of metal chelate binding; set-up: species or system mouse; conditions: reversible binding to parental 2D12.5
Source text: FIG. 9 Relative binding of metal-(S)NBD complexes to antibody 2D12.5. A representative set of competitive binding curves obtained from ELISA experiments. Distance between midpoints is related to difference between dissociation constants. Error bars (representing the standard error of the mean) are shown but are generally smaller than the data points.
FIG. 14 Binding of yttrium chelates with different stereochemistry to antibody 2D12.5, showing that the antibody binds a chelate with the side chain in the R configuration approximately one order of magnitude less well than the S configuration. […] Error bars are smaller than the data symbols. Data were generated by competitive ELISA.
A competitive immunoassay to measure the binding constants of various metal-(S)NBD complexes relative to the original Y^3+ complex (FIG. 9) was developed to assess the metal selectivity of antibody 2D12.5. Briefly, 2D12.5 was incubated at 37° C. in the presence of immobilized HSA-21T-Y-(S)BAD and a soluble metal-(S)NBD competitor (Y-(S)BAD was linked to human serum albumin via 2-iminothiolane). The metal-(S)NBD concentration was varied from μM to pM in order to determine the relative binding affinity of 2D12.5 for each metal chelate in comparison to Y-(S)NBD. […] Other antibodies that bind metal chelates do so with a strong preference for one or possibly two metals (Love, R. et al., Biochemistry 32, 10950-10959 (1993), and Khosraviani, M., et al., (2000) Bioconjugate Chem., 11, 267-277). For example, the (S)NBD chelate of group IIIB ion Sc(III) binds to the antibody with a much lower affinity (<1%) than the strongest binding rare earth complexes, perhaps because Sc(III) has a much smaller ionic radius (Meehan, P. R., et al., Coord. Chem. Rev., 181, 121145, and Shannon, R. D. (1976) Acta Crystallogr., Sect. A: Found. Crystallogr., A32, 751-767).

G54C Fab = test: Kinetics of permanent bond formation with G54C Fab; assay type: binding
Procedure: FIG. 21 Kinetics of permanent bond formation between G54C Fab (1 μM) and 10 μM ^90Y-labeled YAABD. The addition of a high concentration of Y-NBD, a reversibly binding competitor, after 6 min competitively blocks the re-binding of any Y-AABD that dissociates without forming a permanent bond. The experiment containing no competitor, on the other hand, allows any Y-AABD molecules initially bound in an unproductive mode to rebind in an orientation favorable for permanent covalent bond formation until a maximum is reached.
The question to be addressed was the probability that Y-AABD reacts with G54C the first time it forms a complex, instead of dissociating and rebinding. In the first experiment ^90Y-labeled Y-AABD (10 μM) was added to G54C Fab (1 μM) at 37° C., pH 7.5. Samples were withdrawn at various times and were immediately added to SAB, boiled and reduced under denaturing conditions to halt any further permanent bond formation. Samples were analyzed by SDS-PAGE, and the extent of permanent bond formation was determined by measuring the relative radioactivity of bands.
In a second experiment, performed in parallel, conditions were identical to the first except that the reversible competitor Y-NBD was added in vast excess (1 mM) relative to Y-AABD after 6 min, allowing labeled Y-AABD complexes to form bonds or dissociate, but competitively blocking any re-binding of Y-AABD to G54C.

Structure (SMILES)	whole-body clearance [1]	apparent half-life, whole-body clearance [1]	covalent attachment to Fab S95C light chain (Fab S95C [2]; listed as 111In-AABE)	covalent attachment to Fab S95C light chain (Fab S95C [2]; listed as AABE-^111In)	time to 50% complete covalent attachment (Fab S95C [3])	blocking of covalent attachment of 111In-AABE (S95C Fab)	covalent attachment to Fab S95C light chain (Fab S95C [2])	G54C sites blocked from 90Y-AABD (G54C mutant of 2D12.5; 10 μM complex, preincubation 5 min, pH 7.5) [%]	permanent binding to G54C (G54C mutant of 2D12.5; pH 7.5, SDS-PAGE, listed as 90Y-AABD)	Kd (antibody 2D12.5) [nM]	fraction of molecules reacting upon initial complex formation (G54C Fab)
C=CC(=O)Nc1ccc(C[C@@H](CN(CC(=O)O)CC(=O)O)N(CC(=O)O)CC(=O)O)cc1 [AABE, (S)-1-[p-(acrylamido)benzyl]-EDTA]	showed the required clearance properties; also recorded: clears as completely—and almost as rapidly—as ABE	about 4 h	reacted equally well	reacted with the S95C mutant of CHA255 to permanently tag the light chain	approximately 10 min	–	–	–	–	–	–
Nc1ccc(C[C@@H](CN(CC(=O)O)CC(=O)O)N(CC(=O)O)CC(=O)O)cc1 [ABE, (S)-1-[p-(amino)benzyl]-EDTA, reference compound]	–	about 4 h	–	–	–	effectively blocks the reaction	not	–	–	–	–
C=CC(=O)Nc1ccc(C[C@H]2CN(CC(=O)O)CCN(CC(=O)O)CCN(CC(=O)O)CCN2CC(=O)O)cc1 [Y-AABD, (S)-2-(4-acrylamidobenzyl)-DOTA]	–	–	–	–	–	–	–	> 90	permanently and specifically attaches	4	about half
